Experimental findings from patent US11149035B2, “Chemical compounds as H—PGDS inhibitors” (GlaxoSmithKline Intellectual Property Development Limited, priority 2017, dated 2021) are described below.

This test deals with T1, haematopoietic prostaglandin D synthase (H-PGDS) (Homo sapiens, UniProt O60760).
T1 construct: Full length human H-PGDS cDNA (Invitrogen Ultimate ORF IOH13026) was amplified by PCR; 6-His (N); TEV protease cleavage site (N); made in house; host or cells: E. coli BL21 (DE3*)
Nature of the test: H-PGDS RapidFire high throughput mass spectrometry assay (conversion of PGH2 to PGD2). The test is classed as biochemical. To be noted: 10 nM H-PGDS, PGH2 formed in situ by COX-2 from arachidonic acid; four parameter curve fit; read-out: Potency Range (mean pIC50) (converted). The protocol: The H-PGDS RapidFire™ mass spectrometric assay monitors conversion of prostaglandin H2 (PGH2) to prostaglandin D2 (PGD2) by haematopoietic prostaglandin D synthase (H-PGDS). In the assay format described here, the substrate (PGH2) is formed in situ by the action of cyclooxygenase-2 on arachidonic acid. This first step is set up to be fast, and generates a burst of PGH2 at ˜10 μM. The PGH2 is then further converted to PGD2 by the H-PGDS enzyme. […] Plates are then read on the RapidFire™ high throughput solid phase extraction system (Agilent) which incorporates a solid phase extraction step coupled to a triple quadrupole mass spectrometer (AB SCIEX). Relative levels of PGD2 and PGF2α, which acts as a surrogate for substrate, are measured and a percent conversion calculated. Inhibitors are characterised as compounds which lower the conversion of PGH2 to PGD2.
Full length human H-PGDS cDNA (Invitrogen Ultimate ORF IOH13026) was amplified by PCR with the addition of a 5′ 6-His tag and TEV protease cleavage site. The PCR product was digested with NdeI and XhoI and ligated into pET22b+ (Merck Novagen®). Expression was carried out in E. coli strain BL21 (DE3*) using auto-induction Overnight Express™ Instant TB medium (Merck Novagen®) supplemented with 1% glycerol. The culture was first grown at 37° C. and the temperature was reduced to 25° C. when OD600 reached 2.0. Cells were harvested by centrifugation after a further 18 hours. 10 g of E. coli cell pellet was suspended to a total volume of 80 mL in lysis buffer (20 mM Tris-Cl pH 7.5, 300 mM NaCl, 20 mM imidazole, 5 mM β-mercaptoethanol, 10% glycerol). 1 mg/mL protease inhibitors (Protease Inhibitor Cocktail Set III, Merck Calbiochem®) and 1 mg/mL lysozyme were added to the cell suspension. The suspension was then sonicated for 5 min (UltraSonic Processor VCX 750, Cole-Parmer Instrument Co.) with a micro probe (50% amplitude, 10 sec on/off) and then centrifuged at 100,000 g for 90 minutes (at 4° C.). The supernatant was loaded onto a Ni-NTA HiTrap column (5 mL, GE Healthcare, pre-equilibrated in lysis buffer). The column was washed with 10 column volumes of lysis buffer and eluted with lysis buffer containing 500 mM imidazole. The pooled protein peak fractions were concentrated using a 10 kDa centrifugal filter at 3500 g and 4° C. (Amicon Ultra-15 centrifugal filter unit with Ultracel-10 membrane from Millipore). Further purification of the concentrated protein was carried out using gel filtration chromatography on a HiLoad 26/600 Superdex 75 preparative grade column (GE Healthcare Life Sciences) using 50 mM Tris pH 7.5, 50 mM NaCl, 1 mM dithiothreitol, 1 mM MgCl2. Fractions containing the protein were pooled, concentrated as described above, and stored at −80° C.
The full length human COX-2 gene (accession number L15326) was amplified by PCR to generate an EcoRI—HindIII fragment containing an in-frame FLAG tag. This was subcloned into pFastBac 1 (Invitrogen). The COX-2 FLAG plasmid was recombined into the baculovirus genome according to the BAC-to-BAC protocol described by Invitrogen. Transfection into Spodoptera frugiperda (Sf9) insect cells was performed using Cellfectin (Invitrogen), according to the manufacturer's protocol. Super Sf9 cells were cultured in EX420 media (SAFC Biosciences) to a density of approximately 1.5×10^6 cells/mL within a wave bioreactor. Recombinant virus was added at a Multiplicity of Infection (MOI) of 5 and the culture was allowed to continue for 3 days. Cells were harvested using a continuous feed centrifuge run at 2500 g at a rate of approximately 2 L/min with cooling. The resultant cell slurry was re-centrifuged in pots (2500 g, 20 min, 4° C.) and the cell paste was stored at −80° C. 342 g of cell paste was re-suspended to a final volume of 1600 mL in a buffer of 20 mM Tris-Cl pH 7.4, 150 mM NaCl, 0.1 mM EDTA, 1.3% w/v n-octyl-[…] containing 20 Complete EDTA-free Protease Inhibitor Cocktail tablets (Roche Applied Science). […]

T1 sequence (O60760 whole entry): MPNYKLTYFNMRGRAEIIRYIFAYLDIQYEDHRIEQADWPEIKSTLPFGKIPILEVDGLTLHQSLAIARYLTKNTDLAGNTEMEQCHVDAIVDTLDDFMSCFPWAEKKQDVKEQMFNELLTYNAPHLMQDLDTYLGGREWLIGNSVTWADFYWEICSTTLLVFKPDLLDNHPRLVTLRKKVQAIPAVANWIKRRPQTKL

Turning to `CC(C)(O)[C@H]1CC[C@H](NC(=O)c2cnc3nc(N4CCC4)ccc3c2)CC1` [Example 5, 7-(Azetidin-1-yl)-N-(trans-4-(2-hydroxypropan-2-yl)cyclohexyl)-1,8-naphthyridine-3-carboxamide], the IC50 is less than 10 nM.

On to `O=C(N[C@H]1CCNC1=O)c1cnc2nc(C3CC3)ccc2c1` [Example 44, (S)-7-Cyclopropyl-N-(2-oxopyrrolidin-3-yl)-1,8-naphthyridine-3-carboxamide], for which the IC50 was 10 to 79.4 nM.

Take `O=C(N[C@H]1CC[C@](O)(C(F)F)CC1)c1cnc2cc(C3CC3)ncc2c1` [Example 36, 7-Cyclopropyl-N-((1s,4s)-4-(difluoromethyl)-4-hydroxycyclohexyl)-1,6-naphthyridine-3-carboxamide]: the IC50 was 100 to 1000 nM.

As to `C[C@@H]1CCN1c1ccc2cc(C(=O)N[C@H]3CC[C@H](C(C)(C)O)CC3)cnc2n1` [Example 8, N-(trans-4-(2-Hydroxypropan-2-yl)cyclohexyl)-7-((R)-2-methylazetidin-1-yl)-1,8-naphthyridine-3-carboxamide], the IC50 was 100 to 1000 nM.

Regarding `COc1nc2ncc(C(=O)N[C@H]3CC[C@H](C(C)(C)O)CC3)cc2cc1Cl` [Example 62, 6-Chloro-N-(trans-4-(2-hydroxypropan-2-yl)cyclohexyl)-7-methoxy-1,8-naphthyridine-3-carboxamide], the IC50 was less than 10 nM.

Consider `CC1CCN1c1cc2ncc(C(=O)N[C@H]3CC[C@H](C(C)(C)O)CC3)cc2cn1` (mixture of isomers) [Example 11, N-(trans-4-(2-Hydroxypropan-2-yl)cyclohexyl)-7-(2-methylazetidin-1-yl)-1,6-naphthyridine-3-carboxamide], for which the IC50 was 10 to 79.4 nM.

With `CC(C)(O)[C@H]1CC[C@H](NC(=O)c2cnc3nc(C4CC4)c(Cl)cc3c2)CC1` [Example 27, 6-Chloro-7-cyclopropyl-N-((trans)-4-(2-hydroxypropan-2-yl)cyclohexyl)-1,8-naphthyridine-3-carboxamide], the IC50 is less than 10 nM.

`CC(C)(O)[C@H]1CC[C@H](NC(=O)c2cnc3ncccc3c2)CC1` [Example 2, N-(trans-4-(2-Hydroxypropan-2-yl)cyclohexyl)-1,8-naphthyridine-3-carboxamide]: the IC50 was 1260 to 10000 nM.

Consider `CC(C)(O)[C@H]1CC[C@H](NC(=O)c2cnc3cc(NC4CC4)ncc3c2)CC1` [Example 14, 7-(Cyclopropylamino)-N-(trans-4-(2-hydroxypropan-2-yl)cyclohexyl)-1,6-naphthyridine-3-carboxamide], for which the IC50 was 10 to 79.4 nM.

For `CC(N[C@H]1CC[C@H](NC(=O)c2cnc3nc(C4CC4)ccc3c2)CC1)C(F)F` (mixture of isomers) [Example 57, 7-Cyclopropyl-N-(trans-4-((1,1-difluoropropan-2-yl)amino)cyclohexyl)-1,8-naphthyridine-3-carboxamide], the IC50 is 10 to 79.4 nM.

For `CC(C)(O)[C@H]1C[C@H](NC(=O)c2cnc3nc(C4CC4)c(Cl)cc3c2)C1` [Example 73, 6-Chloro-7-cyclopropyl-N-(trans-3-(2-hydroxypropan-2-yl)cyclobutyl)-1,8-naphthyridine-3-carboxamide], the IC50 was less than 10 nM.

With `CCOc1ccc2cc(C(=O)N[C@H]3CC[C@H](C(C)(C)O)CC3)cnc2n1` [Example 56, 7-Ethoxy-N-(trans-4-(2-hydroxypropan-2-yl)cyclohexyl)-1,8-naphthyridine-3-carboxamide], the IC50 is 10 to 79.4 nM.

In the case of `C[C@H]1CCN1c1cc2ncc(C(=O)N[C@H]3C[C@H](C(C)(C)O)C3)cc2cn1` [Example 26, N-(trans-3-(2-Hydroxypropan-2-yl)cyclobutyl)-7-((S)-2-methylazetidin-1-yl)-1,6-naphthyridine-3-carboxamide], the IC50 is 10 to 79.4 nM.

`O=C(N[C@H]1C[C@H](N[C@H](CO)C(F)(F)F)C1)c1cnc2nc(C3CC3)ccc2c1` [Example 69, 7-Cyclopropyl-N-(trans-3-(((R)-1,1,1-trifluoro-3-hydroxypropan-2-yl)amino)cyclobutyl)-1,8-naphthyridine-3-carboxamide]: the IC50 is 10 to 79.4 nM.

For `C[C@H]1CCN1c1ccc2cc(C(=O)N[C@H]3CC[C@H](C(C)(C)O)CC3)cnc2n1` [Example 9, N-(trans-4-(2-Hydroxypropan-2-yl)cyclohexyl)-7-((S)-2-methylazetidin-1-yl)-1,8-naphthyridine-3-carboxamide], the IC50 is less than 10 nM.

Turning to `C[C@]1(O)C[C@@H](NC(=O)c2cnc3nc(N4CCC4)ccc3c2)C1` [Example 18, 7-(Azetidin-1-yl)-N-((1s,3s)-3-hydroxy-3-methylcyclobutyl)-1,8-naphthyridine-3-carboxamide], the IC50 was 100 to 1000 nM.

Take `C[C@]1(O)C[C@H](NC(=O)c2cnc3nc(C4CC4)c(Cl)cc3c2)C1` [Example 75, 6-Chloro-7-cyclopropyl-N-((1r,3r)-3-hydroxy-3-methylcyclobutyl)-1,8-naphthyridine-3-carboxamide]: the IC50 was 10 to 79.4 nM.

With `C[C@]1(O)C[C@@H](NC(=O)c2cnc3nc(C4CC4)c(Cl)cc3c2)C1` [Example 76, 6-Chloro-7-cyclopropyl-N-((1s,3s)-3-hydroxy-3-methylcyclobutyl)-1,8-naphthyridine-3-carboxamide], the IC50 was less than 10 nM.

As to `COc1cc2ncc(C(=O)N[C@H]3CC[C@H](C(C)(C)O)CC3)cc2cn1` [Example 51, N-(trans-4-(2-Hydroxypropan-2-yl)cyclohexyl)-7-methoxy-1,6-naphthyridine-3-carboxamide], the IC50 is 10 to 79.4 nM.

As to `CC(C)(O)C1CC2(CC(NC(=O)c3cnc4nc(C5CC5)ccc4c3)C2)C1` (racemic) [Example 49, 7-Cyclopropyl-N-(6-(2-hydroxypropan-2-yl)spiro[3.3]heptan-2-yl)-1,8-naphthyridine-3-carboxamide], the IC50 was 10 to 79.4 nM.

Consider `CC(N[C@H]1CC[C@H](NC(=O)c2cnc3cc(C4CC4)ncc3c2)CC1)C(F)F` (mixture of isomers) [Example 39, 7-cyclopropyl-N-(trans-4-((1,1-difluoropropan-2-yl)amino)cyclohexyl)-1,6-naphthyridine-3-carboxamide], for which the IC50 was 10 to 79.4 nM.

As to `C[C@@H]1CNC(=O)[C@H]1NC(=O)c1cnc2cc(N3CC[C@@H]3C)ncc2c1` [Example 28, N-((3S,4R)-4-Methyl-2-oxopyrrolidin-3-yl)-7-((S)-2-methylazetidin-1-yl)-1,6-naphthyridine-3-carboxamide], the IC50 was 10 to 79.4 nM.

`C[C@H]1CCN1c1cc2ncc(C(=O)N[C@@H]3C(=O)NCC3(C)C)cc2cn1` [Example 78, N—((S)-4,4-Dimethyl-2-oxopyrrolidin-3-yl)-7-((S)-2-methylazetidin-1-yl)-1,6-naphthyridine-3-carboxamide]: the IC50 is 100 to 1000 nM.

Turning to `CC(C)(O)[C@H]1CC[C@H](NC(=O)c2cnc3nc(OCC(F)(F)F)ccc3c2)CC1` [Example 55, N-(trans-4-(2-Hydroxypropan-2-yl)cyclohexyl)-7-(2,2,2-trifluoroethoxy)-1,8-naphthyridine-3-carboxamide], the IC50 is 100 to 1000 nM.

For `O=C(N[C@H]1CCNC1=O)c1cnc2cc(N3CCC3)ncc2c1` [Example 20, (S)-7-(Azetidin-1-yl)-N-(2-oxopyrrolidin-3-yl)-1,6-naphthyridine-3-carboxamide], the IC50 was 10 to 79.4 nM.
